Entries after “also recorded” stand apart in the source; their conditions may differ.

Experimental findings from patent publication US20070065805A1, “Cell migration assay” (GE Healthcare Bio-Sciences Corp., priority 2005, published 2007) are described below.

The subject of one assay is neutrophil TEM. Briefly: Neutrophil transendothelial migration (TEM) assay, 96-well collagen gel/HUVEC monolayer. It counts as cell-based, human. The following applies: for Inhibition of neutrophil TEM: neutrophil pre-treated with inhibitor (1, 10-phenathronoline 12-1000 μM) for 0.5 hour, inhibitor present throughout the TEM assay, migrated cells counted at Z: 60 μm (FIG. 10). On the procedure:
(§1) A 96-well plate (ViewPlate™, PerkinElmer Life and Analytical Sciences) was set on ice and 40 μl of gel (2.5 mg/ml) was dispensed into each well using stepper repeat pipette (500 or 1000 tip). The plate was spun at 1,500 rpm for 2 min at 4° C. The gel was solidified at 37° C. in a CO2-free incubator to establish a thick layer (200 μm) of collagen gel onto a well of 96-well plate. The following TEM assays were performed using collagen gel prepared in this manner.
The layer of collagen gel in each well was coated with 200 μl of 1 μg/ml human fibronectin (BD Biosciences) in serum-free EGM-2 medium for 1 hour at room temperature. After removal of the fibronectin containing-medium, HUVEC cells (CAMBREX) were seeded onto the gel and cultured in the EGM-2 medium for 3 days, at 37° C., and at a concentration of 40,000 cells/well. The cells were chosen from early passage (3rd to 4th), 70-80% confluent HUVEC cell cultures. The day before the assay, the HUVEC culture medium was replaced with either fresh EGM-2 medium alone, or the fresh EGM-2 medium containing 10 ng/ml IL-1 β (or TNF-α, or other chemoattractants). The mixture was incubated overnight to stimulate TEM.
Neutrophil or peripheral blood mononuclear cells (PBMC) were freshly isolated from blood Buffy coat. Briefly, RBC were removed using dextran sedimentation. Then PBMC were isolated by Ficoll-Hypaque centrifugation. Neutrophils were purified by hypotonic lysis of remaining RBC in the pellet of Ficoll-Hypaque centrifugation. The cells were labelled with CellTracker™ Green, by incubation in 0.5 to 1 μm dye in RPMI for 45 min at 37° C. The dye containing RPMI was removed and the cells washed once with serum-free RPMI medium. The cells were re-suspended in RPMI containing 0.2% HAS (assay medium) at 2.5×10^6 cells/ml.
On the assay day, the culture medium for the HUVEC cell culture was removed and the HUVEC monolayer washed 2 times with PBS and once with assay medium (0.2% of HAS in RPMI). 500,000 (200 μl) neutrophil or PBMC, which were CellTracker™ Green labelled, were placed on top of the HUVEC monolayer in each well. The assay was incubated further at 37° C. The length of time for the incubation is primary cell type dependent. For neutrophil, incubation time is within 2 hours and for PBMC, from 6 to 10 hours may be required.
After the required incubation time, images of neutrophil/PBMC cells which had migrated below the HUVEC layer were acquired. Often, it is sufficient to acquire images at a single Z position and quantify the number of migrated cells in the gel at targeted Z position. As an example, images at the 120 μm Z plane were quantified using the Z-slicing feature of IN Cell Analyzer 3000 (GE Healthcare). Images were analysed using the Object Intensity analysis module. The experiments were repeated multiple times, such that each data point—in the Figures—represents mean plus/minus standard deviation of 6 replicate wells, one Z plane of image/well.
Prior to the TEM assay, neutrophil were pre-treated with 1, 10-phenathronoline, a MMP-9 inhibitor (12-1000 μM) for 0.5 hour. The inhibitor was continuously present throughout the TEM assay. […] Each data point in FIG. 10 represents mean plus/minus SD of 6 replicate wells, one image/well at Z: 60 μm.

For another assay, the system named is PBMC TEM. Briefly: PBMC transendothelial migration (TEM) assay, 96-well collagen gel/HUVEC monolayer. Type of assay: cell-based, human. As to conditions: HUVEC incubated overnight with 10 ng/ml IL-1 β. How it is done: as §1
The layer of collagen gel in each well was coated with 200 μl of 1 μg/ml human fibronectin (BD Biosciences) in serum-free EGM-2 medium for 1 hour at room temperature. After removal of the fibronectin containing-medium, HUVEC cells (CAMBREX) were seeded onto the gel and cultured in the EGM-2 medium for 3 days, at 37° C., and at a concentration of 40,000 cells/well. The cells were chosen from early passage (3rd to 4th), 70-80% confluent HUVEC cell cultures. […]
After the required incubation time, images of neutrophil/PBMC cells which had migrated below the HUVEC layer were acquired. Often, it is sufficient to acquire images at a single Z position and quantify the number of migrated cells in the gel at targeted Z position. As an example, images at the 120 μm Z plane were quantified using the Z-slicing feature of IN Cell Analyzer 3000 (GE Healthcare). Images were analysed using the Object Intensity analysis module. […]

`c1cnc2c(c1)ccc1cccnc12` [1, 10-phenathronoline, reference compound]: in the assay on neutrophil TEM, the “Inhibition of neutrophil TEM” value is “inhibits neutrophil TEM; also recorded: Inhibition of neutrophil TEM”.

Interleukin-1-beta [IL-1β]: the “Stimulation of neutrophil TEM” value in the assay with neutrophil TEM (HUVEC incubated overnight with 10 ng/ml IL-1 β) was “potentiate transendothelial migration of both cell types”. The “Time for neutrophil TEM to reach a significant signal to noise ratio (IL-1β stimulated vs. non-stimulated)” value with neutrophil TEM (migrated cells quantified at Z: 120 μm, FIG. 7) was 0.5 to 2 h. For the same compound, the “Stimulation of PBMC TEM” value in the assay with PBMC TEM is “potentiate transendothelial migration of both cell types”.

As to Interleukin-8 [IL-8], the “Effect of IL-8 soaking on neutrophil TEM” value in the assay on neutrophil TEM (collagen gel pre-soaked with culture medium containing IL-8 at 200 ng/ml for 4 hours) is listed as “increase of neutrophil TEM; also recorded: generates a TEM effect similar to that of IL-1 β activation of HUVEC”.

On to `C[C@H]1c2cccc(O)c2C(O)=C2C(=O)[C@]3(O)C(O)=C(C(N)=O)C(=O)[C@@H](N(C)C)[C@@H]3[C@@H](O)[C@@H]21` [doxycyclin, reference compound], for which the “Inhibition of neutrophil TEM” value in the assay with neutrophil TEM is given as “showed to inhibit TEM”.
